Source: US20070179060A1, “6-(Poly-substituted aryl)-4-aminopicolinates and their use as herbicides” (priority 2006, published 2007)

What was measured:
[1] = system: lambsquarter (Chenopodium album); experiment: Postemergence herbicidal activity; format: in vivo; conditions: post-emergent, 140 g ai/ha, after 14 days; for pest or weed control at 140 g/ha: Chenopodium album, post-emergence, 336 h, read-out: % Control CHEAL
In short: (§1)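 Plants grown 7-21 days in greenhouse (about 15 h photoperiod, 23-29° C day, 22-28° C night) to first or second true leaf stage. Compounds in acetone/water/isopropanol/DMSO carrier with crop oil concentrate and Triton X-155 sprayed overhead at 187 L/ha; controls received solvent blank. Plants sub-irrigated afterwards; dose responses analysed by probit analysis.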

[2] = system: redroot pigweed (Amaranthus retroflexus); experiment: Postemergence herbicidal activity; format: in vivo; conditions: post-emergent, 140 g ai/ha, after 14 days; for pest or weed control at 140 g/ha: Amaranthus retroflexus, post-emergence, 336 h, read-out: % Control AMARE
In short: as §1

[3] = system: velvetleaf (Abutilon theophrasti); experiment: Postemergence herbicidal activity; format: in vivo; conditions: post-emergent, 140 g ai/ha, after 14 days; for pest or weed control at 140 g/ha: Abutilon theophrasti, post-emergence, 336 h, read-out: % Control ABUTH
In short: as §1

Cyperus difformis = experiment: Herbicidal activity in transplanted paddy rice; format: in vivo; conditions: paddy water application, after 3 weeks; for pest or weed control at 35 g/ha: 35 g ai/ha
Method: (§2) Weed seeds or nutlets of the desired test plant species were planted in puddled soil (mud) prepared by mixing a non-sterilized mineral soil (28 percent silt, 18 percent clay, and 54 percent sand, with a pH of about 7.3 to 7.8 and an organic matter content of about 1.0 percent) and water at a ratio of 100 kg of soil to 19 L of water. The prepared mud was dispensed in 250 mL aliquots into 480 mL non-perforated plastic pots with a surface area of 91.6 square centimeters leaving a headspace of 3 centimeters in each pot. […] Seedlings at the second or third leaf stage of growth were transplanted into 650 mL of mud contained in 960 mL non-perforated plastic pots with a surface area of 91.6 square centimeters 4 days prior to herbicide application. The paddy was created by filling the 3 centimeter headspace of the pots with water. When required to ensure good germination and healthy plants, a fungicide treatment and/or other chemical or physical treatment was applied. The plants were grown for 4-14 days in a greenhouse with an approximate 14 hour photoperiod which was maintained at about 29° C. during the day and 26° C. during the night. Nutrients were added as Osmocote (17:6:10, N:P:K+minor nutrients) at 2 g per pot. Water was added on a regular basis to maintain the paddy flood, and supplemental lighting was provided with overhead metal halide 1000-Watt lamps as necessary. The plants were employed for testing when they reached the second or third true leaf stage. A weighed amount, determined by the highest rate to be tested, of each test compound was placed in a 120 mL glass vial and was dissolved in 20 mL of acetone to obtain concentrated stock solutions. […] Application rates of ½×, ¼×, ⅛× and 1/16× of the high rate were obtained by injecting an appropriate amount of the stock solution into the aqueous layer of the paddy. Control plants were treated in the same manner with the solvent blank. The treated plants and control plants were placed in a greenhouse as described above and water was added as needed to maintain a paddy flood.

Echinochloa crus-galli = experiment: Herbicidal activity in transplanted paddy rice; format: in vivo; conditions: paddy water application, after 3 weeks; for pest or weed control at 35 g/ha: 35 g ai/ha
Method: as §2

Monochoria vaginalis = experiment: Herbicidal activity in transplanted paddy rice; format: in vivo; conditions: paddy water application, after 3 weeks; for pest or weed control at 35 g/ha: 35 g ai/ha
Method: as §2

Scirpus juncoides = experiment: Herbicidal activity in transplanted paddy rice; format: in vivo; conditions: paddy water application, after 3 weeks; for pest or weed control at 35 g/ha: 35 g ai/ha
Method: as §2

[4] = system: rice (Orysa sativa var. Japonica); experiment: Herbicidal activity in transplanted paddy rice; format: in vivo; conditions: transplant rice (crop), paddy water application, after 3 weeks; for pest or weed control at 35 g/ha: 35 g ai/ha
Method: as §2

Galium aparine = experiment: Postemergence herbicidal activity in cereal crops; format: in vivo; conditions: post-emergent, 17.5 g ai/ha, after 20-22 days; for pest or weed control at 17.5 g/ha: Galium aparine, post-emergence, 480 h, read-out: % Control GALAP
In short: (§3)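 Plants are raised in a greenhouse for 7-36 days and used at the second to third true leaf stage. Compounds in a mixed organic–aqueous carrier with crop oil and surfactant are sprayed postemergence at 187 L/ha. Treated plants return to the greenhouse with sub-irrigation, alongside blank-sprayed controls.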

Lamium purpureum = experiment: Postemergence herbicidal activity in cereal crops; format: in vivo; conditions: post-emergent, 17.5 g ai/ha, after 20-22 days; for pest or weed control at 17.5 g/ha: Lamium purpureum, post-emergence, 480 h, read-out: % Control LAMPU
In short: as §3

Papaver rhoeas = experiment: Postemergence herbicidal activity in cereal crops; format: in vivo; conditions: post-emergent, 17.5 g ai/ha, after 20-22 days; for pest or weed control at 17.5 g/ha: Papaver rhoeas, post-emergence, 480 h, read-out: % Control PAPRH
In short: as §3

Veronica persica = experiment: Postemergence herbicidal activity in cereal crops; format: in vivo; conditions: post-emergent, 17.5 g ai/ha, after 20-22 days; for pest or weed control at 17.5 g/ha: Veronica persica, post-emergence, 480 h, read-out: % Control VERPE
In short: as §3

barley (Hordeum vulare) = experiment: Postemergence herbicidal activity in cereal crops; format: in vivo; conditions: crop, post-emergent, 17.5 g ai/ha, after 20-22 days; for pest or weed control at 17.5 g/ha: Hordeum, post-emergence, 480 h, read-out: % Control HORVS
In short: as §3

[5] = system: wheat (Triticum aestivum); experiment: Postemergence herbicidal activity in cereal crops; format: in vivo; conditions: crop, post-emergent, 17.5 g ai/ha, after 20-22 days; for plant injury at 17.5 g/ha: Triticum aestivum, post-emergence, 480 h, read-out: % Control TRZAS
In short: as §3

[6] = Cyperus difformis, 504 h, read-out: % Control CYPDI
[7] = Echinochloa crus-galli, 504 h, read-out: % Control ECHCG
[8] = Pontederia vaginalis, 504 h, read-out: % Control MOOVA
[9] = Schoenoplectiella juncoides, 504 h, read-out: % Control SCPJU
[10] = Cyperus difformis, 504 h, 17.5 g ai/ha, read-out: % Control CYPDI
[11] = Echinochloa crus-galli, 504 h, 17.5 g ai/ha, read-out: % Control ECHCG
[12] = Pontederia vaginalis, 504 h, 17.5 g ai/ha, read-out: % Control MOOVA
[13] = Schoenoplectiella juncoides, 504 h, 17.5 g ai/ha, read-out: % Control SCPJU
[14] = Oryza sativa, 504 h, 17.5 g ai/ha

## CCN(CC)c1c(Cl)ccc(-c2cc(N)c(Cl)c(C(=O)OC)n2)c1F [Compound 17, 4-Amino-3-chloro-6-[4-chloro-3-(diethylamino)-2-fluorophenyl]pyridine-2-carboxylic acid, methyl ester]
[1]
  pest or weed control at 140 g/ha: 100%
[2]
  pest or weed control at 140 g/ha: 100%
[3]
  pest or weed control at 140 g/ha: 100%
Cyperus difformis; [6]
  pest or weed control at 35 g/ha: 100%
Echinochloa crus-galli; [7]
  pest or weed control at 35 g/ha: 70%
Monochoria vaginalis; [8]
  pest or weed control at 35 g/ha: 100%
Scirpus juncoides; [9]
  pest or weed control at 35 g/ha: 90%
[4]; Oryza sativa, 504 h
  pest or weed control at 35 g/ha: 0%
Galium aparine
  pest or weed control at 17.5 g/ha: 80%
Lamium purpureum
  pest or weed control at 17.5 g/ha: 100%
Papaver rhoeas
  pest or weed control at 17.5 g/ha: 100%
Veronica persica
  pest or weed control at 17.5 g/ha: 99%
Barley (Hordeum vulare)
  pest or weed control at 17.5 g/ha: 0%
[5]
  plant injury at 17.5 g/ha: 0%
other
  melting point: 120 to 121 °C

## CNc1c(Cl)ccc(-c2cc(N)c(Cl)c(C(=O)OC)n2)c1F [Compound 38, 4-Amino-3-chloro-6-[4-chloro-2-fluoro-3-(methylamino)phenyl]pyridine-2-carboxylic acid, methyl ester]
[1]
  pest or weed control at 140 g/ha: 100%
[2]
  pest or weed control at 140 g/ha: 100%
[3]
  pest or weed control at 140 g/ha: 100%
Cyperus difformis; Cyperus difformis, 504 h, 70 g ai/ha, read-out: % Control CYPDI
  pest or weed control at 70 g/ha: 100%
Echinochloa crus-galli; Echinochloa crus-galli, 504 h, 70 g ai/ha, read-out: % Control ECHCG
  pest or weed control at 70 g/ha: 50%
Monochoria vaginalis; Pontederia vaginalis, 504 h, 70 g ai/ha, read-out: % Control MOOVA
  pest or weed control at 70 g/ha: 100%
Scirpus juncoides; Schoenoplectiella juncoides, 504 h, 70 g ai/ha, read-out: % Control SCPJU
  pest or weed control at 70 g/ha: 95%
[4]; Oryza sativa, 504 h, 70 g ai/ha
  pest or weed control at 70 g/ha: 0%
Galium aparine
  pest or weed control at 17.5 g/ha: 85%
Lamium purpureum
  pest or weed control at 17.5 g/ha: 95%
Papaver rhoeas
  pest or weed control at 17.5 g/ha: 100%
Veronica persica
  pest or weed control at 17.5 g/ha: 99%
Barley (Hordeum vulare)
  pest or weed control at 17.5 g/ha: 0%
[5]
  plant injury at 17.5 g/ha: 5%
other
  melting point: 148 to 149 °C

## COC(=O)c1nc(-c2ccc(Cl)c(C(C)F)c2F)cc(N)c1Cl (centres unmarked) [Compound 61, 4-Amino-3-chloro-6-[4-chloro-2-fluoro-3-(1-fluoroethyl)phenyl]pyridine-2-carboxylic acid, methyl ester]
[1]
  pest or weed control at 140 g/ha: 100%
[2]
  pest or weed control at 140 g/ha: 100%
[3]
  pest or weed control at 140 g/ha: 100%
Cyperus difformis; [6]
  pest or weed control at 35 g/ha: 100%
Echinochloa crus-galli; [7]
  pest or weed control at 35 g/ha: 80%
Monochoria vaginalis; [8]
  pest or weed control at 35 g/ha: 100%
Scirpus juncoides; [9]
  pest or weed control at 35 g/ha: 100%
[4]; Oryza sativa, 504 h
  pest or weed control at 35 g/ha: 0%
Galium aparine
  pest or weed control at 17.5 g/ha: 85%
Lamium purpureum
  pest or weed control at 17.5 g/ha: 99%
Papaver rhoeas
  pest or weed control at 17.5 g/ha: 90%
Veronica persica
  pest or weed control at 17.5 g/ha: 75%
Barley (Hordeum vulare)
  pest or weed control at 17.5 g/ha: 0%
[5]
  plant injury at 17.5 g/ha: 10%

## CCCCOC(=O)c1nc(-c2ccc(Br)c(OC)c2F)cc(N)c1Cl [Compound 90, 4-Amino-3-chloro-6-(4-bromo-2-fluoro-3-methoxyphenyl)pyridine-2-carboxylic acid, butyl ester]
[1]
  pest or weed control at 140 g/ha: 100%
[2]
  pest or weed control at 140 g/ha: 85%
[3]
  pest or weed control at 140 g/ha: 100%
Cyperus difformis; [10]
  pest or weed control at 17.5 g/ha: 100%
Echinochloa crus-galli; [11]
  pest or weed control at 17.5 g/ha: 30%
Monochoria vaginalis; [12]
  pest or weed control at 17.5 g/ha: 100%
Scirpus juncoides; [13]
  pest or weed control at 17.5 g/ha: 90%
[4]; [14]
  pest or weed control at 17.5 g/ha: 0%
Galium aparine
  pest or weed control at 17.5 g/ha: 99%
Lamium purpureum
  pest or weed control at 17.5 g/ha: 100%
Papaver rhoeas
  pest or weed control at 17.5 g/ha: 95%
Veronica persica
  pest or weed control at 17.5 g/ha: 25%
Barley (Hordeum vulare)
  pest or weed control at 17.5 g/ha: 10%
[5]
  plant injury at 17.5 g/ha: 0%

## CCCCOC(=O)c1nc(-c2ccc(Cl)c(C(C)F)c2F)cc(N)c1Cl (centres unmarked) [Compound 91, 4-Amino-3-chloro-6-[4-chloro-2-fluoro-3-(1-fluoroethyl)phenyl)pyridine-2-carboxylic acid, butyl ester]
[1]
  pest or weed control at 140 g/ha: 100%
[2]
  pest or weed control at 140 g/ha: 100%
[3]
  pest or weed control at 140 g/ha: 95%
Cyperus difformis; [6]
  pest or weed control at 35 g/ha: 100%
Echinochloa crus-galli; [7]
  pest or weed control at 35 g/ha: 99%
Monochoria vaginalis; [8]
  pest or weed control at 35 g/ha: 100%
Scirpus juncoides; [9]
  pest or weed control at 35 g/ha: 99%
[4]; Oryza sativa, 504 h
  pest or weed control at 35 g/ha: 0%
Galium aparine
  pest or weed control at 17.5 g/ha: 90%
Lamium purpureum
  pest or weed control at 17.5 g/ha: 100%
Papaver rhoeas
  pest or weed control at 17.5 g/ha: 60%
Veronica persica
  pest or weed control at 17.5 g/ha: 45%
Barley (Hordeum vulare)
  pest or weed control at 17.5 g/ha: 10%
[5]
  plant injury at 17.5 g/ha: 20%

## CCCCOCCOC(=O)c1nc(-c2ccc(Cl)c(OC)c2F)cc(N)c1Cl [Compound 92, 4-Amino-3-chloro-6-(4-chloro-2-fluoro-3-methoxyphenyl)pyridine-2-carboxylic acid, 2-butoxy-ethyl ester]
[1]
  % Control CHEAL: 100%
[2]
  % Control AMARE: 100%
[3]
  % Control ABUTH: 100%
Cyperus difformis; [10]
  pest or weed control at 17.5 g/ha: 99%
Echinochloa crus-galli; [11]
  pest or weed control at 17.5 g/ha: 40%
Monochoria vaginalis; [12]
  pest or weed control at 17.5 g/ha: 100%
Scirpus juncoides; [13]
  pest or weed control at 17.5 g/ha: 90%
[4]; [14]
  pest or weed control at 17.5 g/ha: 0%
Galium aparine
  % Control GALAP: 99%
Lamium purpureum
  % Control LAMPU: 100%
Papaver rhoeas
  % Control PAPRH: 95%
Veronica persica
  % Control VERPE: 30%
Barley (Hordeum vulare)
  % Control HORVS: 0%
[5]
  % Control TRZAS: 0%
other
  melting point: 72 to 74 °C

## CCN(CC)CC.COc1c(Cl)ccc(-c2cc(N)c(Cl)c(C(=O)O)n2)c1F [Compound 135, 4-amino-3-chloro-6-(4-chloro-2-fluoro-3-methoxyphenyl)-pyridine-2-carboxylic acid, triethyl amine salt]
Cyperus difformis; 17.5 g ai/ha
  % Control CYPDI: 100%
Echinochloa crus-galli; 17.5 g ai/ha
  % Control ECHCG: 30%
Monochoria vaginalis; 17.5 g ai/ha
  % Control MOOVA: 100%
Scirpus juncoides; 17.5 g ai/ha
  % Control SCPJU: 85%
[4]; 17.5 g ai/ha
  % Control ORYSA: 10%
Galium aparine
  % Control GALAP: 90%
Lamium purpureum
  % Control LAMPU: 100%
Papaver rhoeas
  % Control PAPRH: 100%
Veronica persica
  % Control VERPE: 60%
Barley (Hordeum vulare)
  % Control HORVS: 0%
[5]
  % Control TRZAS: 0%
